Measured values reported in patent publication US7854753B2, “Photokinetic delivery of biologically active substances using pulsed incoherent light” (Photokinetix, Inc., priority 2002, dated 2010).
One block for each compound: values may come before it.

Experiment: Franz skin diffusion cell permeation (percutaneous absorption) under ambient, natural or pulsed incoherent LED light
Settings: for Permeation Dark: ambient light absent; for Permeation Ctrl: ambient cool fluorescent light only, 260-750 nm, 120 cps; for Permeation Ctrl-TiO2: ambient fluorescent light, sample with 2% (w/w) rutile TiO2; for Ctrl: ambient light only; for Ctrl-TiO2: ambient light, 2% TiO2; for Ctrl-TiO2/1.7 / Ctrl-TiO2/9.7 / Ctrl-TiO2/24: Table 7, 350 nm series; for Ctrl-TiO2/1.7: 2% TiO2, 1.7 cps; for Ctrl-TiO2/9.7: 2% TiO2, 9.7 cps; for Ctrl-TiO2/24: 2% TiO2, 24 cps; for 350/1.7 / 350/9.7 / 350/24: Table 7; for 350/1.7 / 405/1.7: 1.7 cps; for 350/9.7 / 405/9.7: 9.7 cps; for 350/24 / 405/24: 24 cps; for 405/1.7 / 405/9.7 / 405/24: Table 10
[1] = 350 + TiO2, 24 cps vs Dark-TiO2
[2] = 350 + TiO2, 80 cps vs Dark-TiO2
[3] = 390 + TiO2, 24 cps vs Dark-TiO2
[4] = 390 + TiO2, 80 cps vs Dark-TiO2
[5] = 405 + TiO2, 24 cps vs Dark-TiO2
[6] = 405 + TiO2, 80 cps vs Dark-TiO2
[7] = 450 + TiO2, 24 cps vs Dark-TiO2
[8] = 450 + TiO2, 80 cps vs Dark-TiO2
[9] = Dark-TiO2 control (2% TiO2), 24 cps series
[10] = Dark-TiO2 control (2% TiO2), 80 cps series
[11] = Day (natural daylight, not pulsed), control of the 24 cps series
[12] = Day (natural daylight, not pulsed), control of the 80 cps series
[13] = Day-TiO2 (natural daylight, 2% TiO2, not pulsed), control of the 24 cps series
[14] = Day-TiO2 (natural daylight, 2% TiO2, not pulsed), control of the 80 cps series
[15] = Day-TiO2 vs Dark-TiO2, 24 cps series
[16] = Day-TiO2 vs Dark-TiO2, 80 cps series

Compound: O=C1O[C@H]([C@@H](O)CO)C([O-])=C1OP(=O)([O-])[O-].[Na+].[Na+].[Na+] [Compound 2, Sodium ascorbyl phosphate]
- Ctrl (Table 7 (350 nm series)): 0.00
- Ctrl-TiO2 (Table 7 (350 nm series)): 0.00
- Ctrl-TiO2/1.7: 42.75
- Ctrl-TiO2/9.7: 6.48
- Ctrl-TiO2/24: 0.00
- 350/1.7 (350 nm): 3.33
- 350/9.7 (350 nm): 0.00
- 350/24 (350 nm): 0.00

Compound: Cn1c(=O)c2c(ncn2C)n(C)c1=O [Compound 9, Caffeine]
- Permeation Dark (Dark control): 269.40 μg/0.64 cm^2/25 hrs
- Permeation Ctrl: 168.70 μg/0.64 cm^2/25 hrs
- Permeation Ctrl-TiO2: 47.22 μg/0.64 cm^2/25 hrs

Compound: CC(C)C[C@H](NC(=O)[C@H](Cc1ccccc1)NC(=O)CNC(=O)CNC(=O)[C@@H](N)Cc1ccc(O)cc1)C(=O)O [Compound 14, Leucine Enkephalin (Tyr-Gly-Gly-Phe-Leu)]
- % Permeation (percent increase or decrease vs dark baseline, equation 1) [1]: 8.58%
- % Permeation (percent increase or decrease vs dark baseline, equation 1) [2]: 39.43%
- Permeation (350 + TiO2, pulse rate 24 cps): 73.17 μg/cm^2/24 hrs
- Permeation (350 + TiO2, pulse rate 80 cps): 28.50 μg/cm^2/24 hrs
- Permeation (350 nm LED, pulse rate 24 cps): 84.44 μg/cm^2/24 hrs
- Permeation (350 nm LED, pulse rate 80 cps): 31.30 μg/cm^2/24 hrs
- % Permeation (percent increase or decrease vs dark baseline, equation 1) (350 nm, 24 cps vs Dark): −21.59%
- % Permeation (percent increase or decrease vs dark baseline, equation 1) (350 nm, 80 cps vs Dark): 72.36%
- % Permeation (percent increase or decrease vs dark baseline, equation 1) [3]: 54.21%
- % Permeation (percent increase or decrease vs dark baseline, equation 1) [4]: 55.14%
- Permeation (390 + TiO2, pulse rate 24 cps): 103.92 μg/cm^2/24 hrs
- Permeation (390 + TiO2, pulse rate 80 cps): 31.71 μg/cm^2/24 hrs
- Permeation (390 nm LED, pulse rate 24 cps): 108.49 μg/cm^2/24 hrs
- Permeation (390 nm LED, pulse rate 80 cps): 31.32 μg/cm^2/24 hrs
- % Permeation (percent increase or decrease vs dark baseline, equation 1) (390 nm, 24 cps vs Dark): 0.74%
- % Permeation (percent increase or decrease vs dark baseline, equation 1) (390 nm, 80 cps vs Dark): 72.47%
- % Permeation (percent increase or decrease vs dark baseline, equation 1) [5]: 322.29%
- % Permeation (percent increase or decrease vs dark baseline, equation 1) [6]: −35.47%
- Permeation (405 + TiO2, pulse rate 24 cps): 284.58 μg/cm^2/24 hrs
- Permeation (405 + TiO2, pulse rate 80 cps): 13.19 μg/cm^2/24 hrs
- Permeation (405 nm LED, pulse rate 24 cps): 87.52 μg/cm^2/24 hrs
- Permeation (405 nm LED, pulse rate 80 cps): 20.82 μg/cm^2/24 hrs
- % Permeation (percent increase or decrease vs dark baseline, equation 1) (405 nm, 24 cps vs Dark): −18.73%
- % Permeation (percent increase or decrease vs dark baseline, equation 1) (405 nm, 80 cps vs Dark): 14.65%
- % Permeation (percent increase or decrease vs dark baseline, equation 1) [7]: 158.04%
- % Permeation (percent increase or decrease vs dark baseline, equation 1) [8]: 45.45%
- Permeation (450 + TiO2, pulse rate 24 cps): 173.89 μg/cm^2/24 hrs
- Permeation (450 + TiO2, pulse rate 80 cps): 29.73 μg/cm^2/24 hrs
- Permeation (450 nm LED, pulse rate 24 cps): 29.25 μg/cm^2/24 hrs
- Permeation (450 nm LED, pulse rate 80 cps): 21.81 μg/cm^2/24 hrs
- % Permeation (percent increase or decrease vs dark baseline, equation 1) (450 nm, 24 cps vs Dark): −72.84%
- % Permeation (percent increase or decrease vs dark baseline, equation 1) (450 nm, 80 cps vs Dark): 20.10%
- Permeation Dark (Dark control): 41.68 μg/0.64 cm^2/25 hrs
- Permeation (Dark control, 24 cps series): 107.69 μg/cm^2/24 hrs
- Permeation (Dark control, 80 cps series): 18.16 μg/cm^2/24 hrs
- Permeation [9]: 67.39 μg/cm^2/24 hrs
- Permeation [10]: 20.44 μg/cm^2/24 hrs
- Permeation [11]: 37.31 μg/cm^2/24 hrs
- Permeation [12]: 20.89 μg/cm^2/24 hrs
- % Permeation (percent increase or decrease vs dark baseline, equation 1) (Day vs Dark, 24 cps series): −65.35%
- % Permeation (percent increase or decrease vs dark baseline, equation 1) (Day vs Dark, 80 cps series): 15.03%
- Permeation [13]: 46.85 μg/cm^2/24 hrs
- Permeation [14]: 18.64 μg/cm^2/24 hrs
- % Permeation (percent increase or decrease vs dark baseline, equation 1) [15]: −30.48%
- % Permeation (percent increase or decrease vs dark baseline, equation 1) [16]: −8.81%
- 405/1.7 (405 nm): 40.38
- 405/9.7 (405 nm): 1.23
- 405/24 (405 nm): 0.00
- Ctrl (Table 10 peptides): 0.00
- Permeation Ctrl: 0.00 μg/0.64 cm^2/25 hrs
- Permeation Ctrl-TiO2: 0.00 μg/0.64 cm^2/25 hrs

Second part, the compound after the results:

- Permeation Dark (Dark control): 0.00 μg/0.64 cm^2/25 hrs
- Permeation Ctrl: 0.00 μg/0.64 cm^2/25 hrs
- Permeation Ctrl-TiO2: 0.00 μg/0.64 cm^2/25 hrs
Compound: Cn1c(=O)c2c(ncn2CC(=O)O)n(C)c1=O [Compound 1, Theophylline-7 acetic acid]

- Ctrl (Table 7 (350 nm series)): 147.49
- Ctrl-TiO2 (Table 7 (350 nm series)): 67.01
- Ctrl (Table 8 (405 nm series)): 557.96
- Ctrl-TiO2 (Table 8 (405 nm series)): 127.25
Compound: O=C1O[C@H]([C@@H](O)CO)C(O)=C1O [Compound 3, Ascorbic Acid]

- Permeation Dark (Dark control): 0.00 μg/0.64 cm^2/25 hrs
- Ctrl (Table 7 (350 nm series)): 263.48
- Ctrl-TiO2 (Table 7 (350 nm series)): 260.00
- Ctrl-TiO2/1.7: 289.57
- Ctrl-TiO2/9.7: 312.06
- Ctrl-TiO2/24: 180.88
- 350/1.7 (350 nm): 160.87
- 350/9.7 (350 nm): 0.00
- 350/24 (350 nm): 151.00
Compound: CCCCCCCCCCCCCCCC(=O)OC[C@H](O)[C@H]1OC(=O)C(O)=C1O [Compound 4, Ascorbyl palmitate]

- % Permeation (percent increase or decrease vs dark baseline, equation 1) [1]: 66.64%
- % Permeation (percent increase or decrease vs dark baseline, equation 1) [2]: 65.49%
- Permeation (350 + TiO2, pulse rate 24 cps): 18.98 μg/cm^2/24 hrs
- Permeation (350 + TiO2, pulse rate 80 cps): 16.45 μg/cm^2/24 hrs
- Permeation (350 nm LED, pulse rate 24 cps): 22.69 μg/cm^2/24 hrs
- Permeation (350 nm LED, pulse rate 80 cps): 17.41 μg/cm^2/24 hrs
- % Permeation (percent increase or decrease vs dark baseline, equation 1) (350 nm, 24 cps vs Dark): 50.96%
- % Permeation (percent increase or decrease vs dark baseline, equation 1) (350 nm, 80 cps vs Dark): 94.09%
- % Permeation (percent increase or decrease vs dark baseline, equation 1) [3]: 11.76%
- % Permeation (percent increase or decrease vs dark baseline, equation 1) [4]: 95.88%
- Permeation (390 + TiO2, pulse rate 24 cps): 12.73 μg/cm^2/24 hrs
- Permeation (390 + TiO2, pulse rate 80 cps): 19.47 μg/cm^2/24 hrs
- Permeation (390 nm LED, pulse rate 24 cps): 21.47 μg/cm^2/24 hrs
- Permeation (390 nm LED, pulse rate 80 cps): 18.70 μg/cm^2/24 hrs
- % Permeation (percent increase or decrease vs dark baseline, equation 1) (390 nm, 24 cps vs Dark): 42.85%
- % Permeation (percent increase or decrease vs dark baseline, equation 1) (390 nm, 80 cps vs Dark): 108.47%
- % Permeation (percent increase or decrease vs dark baseline, equation 1) [5]: −44.16%
- % Permeation (percent increase or decrease vs dark baseline, equation 1) [6]: 101.11%
- Permeation (405 + TiO2, pulse rate 24 cps): 6.36 μg/cm^2/24 hrs
- Permeation (405 + TiO2, pulse rate 80 cps): 19.99 μg/cm^2/24 hrs
- Permeation (405 nm LED, pulse rate 24 cps): 12.32 μg/cm^2/24 hrs
- Permeation (405 nm LED, pulse rate 80 cps): 19.89 μg/cm^2/24 hrs
- % Permeation (percent increase or decrease vs dark baseline, equation 1) (405 nm, 24 cps vs Dark): −18.03%
- % Permeation (percent increase or decrease vs dark baseline, equation 1) (405 nm, 80 cps vs Dark): 121.74%
- % Permeation (percent increase or decrease vs dark baseline, equation 1) [7]: −33.98%
- % Permeation (percent increase or decrease vs dark baseline, equation 1) [8]: 48.29%
- Permeation (450 + TiO2, pulse rate 24 cps): 7.52 μg/cm^2/24 hrs
- Permeation (450 + TiO2, pulse rate 80 cps): 14.74 μg/cm^2/24 hrs
- Permeation (450 nm LED, pulse rate 24 cps): 9.51 μg/cm^2/24 hrs
- Permeation (450 nm LED, pulse rate 80 cps): 17.39 μg/cm^2/24 hrs
- % Permeation (percent increase or decrease vs dark baseline, equation 1) (450 nm, 24 cps vs Dark): −36.73%
- % Permeation (percent increase or decrease vs dark baseline, equation 1) (450 nm, 80 cps vs Dark): 93.87%
- Permeation Dark (Dark control): 37.24 μg/0.64 cm^2/25 hrs
- Permeation (Dark control, 24 cps series): 15.03 μg/cm^2/24 hrs
- Permeation (Dark control, 80 cps series): 8.97 μg/cm^2/24 hrs
- Permeation [9]: 11.39 μg/cm^2/24 hrs
- Permeation [10]: 9.94 μg/cm^2/24 hrs
- Permeation [11]: 8.27 μg/cm^2/24 hrs
- Permeation [12]: 11.32 μg/cm^2/24 hrs
- % Permeation (percent increase or decrease vs dark baseline, equation 1) (Day vs Dark, 24 cps series): −44.98%
- % Permeation (percent increase or decrease vs dark baseline, equation 1) (Day vs Dark, 80 cps series): 26.20%
- Permeation [13]: 11.11 μg/cm^2/24 hrs
- Permeation [14]: 13.64 μg/cm^2/24 hrs
- % Permeation (percent increase or decrease vs dark baseline, equation 1) [15]: −2.55%
- % Permeation (percent increase or decrease vs dark baseline, equation 1) [16]: 37.22%
- 405/1.7 (405 nm): 23.21
- 405/9.7 (405 nm): 91.68
- 405/24 (405 nm): 48.83
- Ctrl (Table 10 peptides): 35.26
- Permeation Ctrl: 35.26 μg/0.64 cm^2/25 hrs
- Permeation Ctrl-TiO2: 41.18 μg/0.64 cm^2/25 hrs
Compound: CC(C)[C@H](N)C(=O)N[C@@H](Cc1ccc(O)cc1)C(=O)N[C@H](C(=O)O)C(C)C [Compound 12, Val-Tyr-Val]

- Permeation Dark (Dark control): 42.80 μg/0.64 cm^2/25 hrs
- 405/1.7 (405 nm): 19.99
- 405/9.7 (405 nm): 73.19
- 405/24 (405 nm): 3.87
- Ctrl (Table 10 peptides): 0.00
- Permeation Ctrl: 0.00 μg/0.64 cm^2/25 hrs
- Permeation Ctrl-TiO2: 0.00 μg/0.64 cm^2/25 hrs
Compound: CC[C@H](C)[C@H](NC(=O)[C@H](Cc1ccc(O)cc1)NC(=O)[C@@H](NC(=O)[C@H](CCCNC(=N)N)NC(=O)[C@@H](N)CC(=O)O)C(C)C)C(=O)N[C@@H](Cc1cnc[nH]1)C(=O)N1CCC[C@H]1C(=O)N[C@@H](Cc1ccccc1)C(=O)O [Compound 15]
